Reference: patent US4262015A, “N-alkylthio- and N-arylthiosulfinylcarbamate esters” (priority 1979, dated 1981)
Values after ≈ are worked out from the molar mass of the structure shown. Like-named read-outs stand apart in the source and are kept apart here.

Columns and labels:
in vivo = conditions: mouse, po
Experimental: Mammalian toxicity was determined against Swiss white mice. The test compound was applied orally using corn oil as the carrier.

[1] = test system: house flies, Musca domestica; assay: insecticidal activity against house flies, topical application, mortality at 24 h; type: in vivo; conditions: read-out: House flies LD50
Experimental: (§1) Representative compounds of the N-arylthio- and N-alkylthiosulfinylcarbamate esters of the invention were tested for insecticidal activity against two insect species, house flies, Musca domestica, and mosquito larvae, Culex pipiens. Stock 1% concentrated solutions of each of the test compounds were made in acetone, and such solutions diluted with acetone to a concentration of 0.001-0.1%. House flies were treated topically on the notum by 1 μl of each of the diluted acetone solutions and percent mortality was counted 24 hours after application. Insects were held at a constant temperature of 60° F. Larvicidal activity was determined by applying 1 ml of the acetone solution in 100 ml of water containing 20 3rd instar mosquito larvae. Results are presented as LD50 in μg/g for house flies and LC50 in ppm for mosquito larvae.

[2] = test system: mosquito larvae, Culex pipiens; assay: larvicidal activity against mosquito larvae; type: in vivo; conditions: 3rd instar mosquito larvae, 1 ml acetone solution in 100 ml water
Experimental: as §1

[3] = house flies, topical on notum, 1 μl acetone solution, 24 hours

SMILES	LD50 (in vivo) [mg/kg]	LD50 ([1]; topical, 24 h) [mg/kg]	LC50 [2] [µg/mL]	LD50 [1, 3] [mg/kg]
CNC(=O)Oc1ccccc1OC(C)C [2-isopropoxyphenyl methylcarbamate, reference compound]	60	–	–	–
CCCCS[S+]([O-])N(C)C(=O)Oc1cccc2c1OC(C)(C)C2 (centres unmarked) [Example I, 2,3-dihydro-2,2-dimethylbenzofuranyl-7 (methyl)(n-butylthiosulfinyl)carbamate]	45	16.5	–	–
Cc1cc(C(C)(C)C)ccc1S[S+]([O-])N(C)C(=O)Oc1cccc2c1OC(C)(C)C2 (centres unmarked) [Example V, 2,3-dihydro-2,2-dimethylbenzofuranyl-7 (methyl)(2-methyl-4-t-butylphenylthiosulfinyl)carbamate]	70	8.8	–	–
CCCCS[S+]([O-])N(C)C(=O)Oc1ccccc1OC(C)C (centres unmarked) [Example VI, 2-isopropoxyphenyl (methyl)(n-butylthiosulfinyl)carbamate]	1050	31	–	–
CC(C)c1cccc(OC(=O)N(C)[S+]([O-])SC(C)(C)C)c1 (centres unmarked) [Example X, 3-isopropylphenyl (methyl)(t-butylthiosulfinyl)carbamate]	250	75	–	–
CN(C(=O)Oc1cccc2c1OC(C)(C)C2)[S+]([O-])SC(C)(C)C (centres unmarked) [II, 2,3-dihydro-2,2-dimethylbenzofuranyl-7 (methyl)(t-butylthiosulfinyl)carbamate]	70	9	0.01 (≈ 0.028 µM)	–
CN(C(=O)Oc1cccc2c1OC(C)(C)C2)[S+]([O-])Sc1ccccc1 (centres unmarked) [III, 2,3-dihydro-2,2-dimethylbenzofuranyl-7 (methyl)(phenylthiosulfinyl)carbamate]	32	7	0.05 (≈ 0.132 µM)	–
CN(C(=O)Oc1cccc2c1OC(C)(C)C2)[S+]([O-])Sc1ccc(C(C)(C)C)cc1 (centres unmarked) [IV, 2,3-dihydro-2,2-dimethylbenzofuranyl-7 (methyl)(4-t-butylphenylthiosulfinyl)carbamate]	92	11.8	–	–
CSC(C)=NOC(=O)N(C)[S+]([O-])Sc1ccccc1 (centres unmarked) [IX, S-methyl N-[N'-methyl-N'-phenylthiosulfinylcarbamoyloxy]thioacetimidate]	150	–	–	6.5
Cc1cc(C(C)(C)C)ccc1S[S+]([O-])N(C)C(=O)Oc1ccccc1OC(C)C (centres unmarked) [VII, 2-isopropoxyphenyl (methyl)(2-methyl-4-t-butylphenylthiosulfinyl)carbamate]	> 1000	27	–	–
CSC(C)=NOC(=O)N(C)[S+]([O-])SC(C)(C)C (centres unmarked) [VIII, S-methyl N-[N'-methyl-N'-t-butylthiosulfinylcarbamoyloxy]thioacetimidate]	135	–	–	5.5
Cc1cc(C(C)(C)C)ccc1S[S+]([O-])N(C)C(=O)Oc1cccc(C(C)C)c1 (centres unmarked) [XI, 3-isopropylphenyl (methyl)(2-methyl-4-t-butylphenylthiosulfinyl)carbamate]	450	62.5	–	–
CCCCCCCCCCCCS[S+]([O-])N(C)C(=O)ON=CC(C)(C)SC (centres unmarked) [XII, 2-methyl-2-(methylthio)propionaldehyde O-[(methyl)(dodecylthiosulfinyl)carbamoyl]oxime]	–	–	–	12
CN(C(=O)Oc1cccc2ccccc12)[S+]([O-])SC(C)(C)C (centres unmarked) [XIII, 1-naphthyl (methyl)(t-butylthiosulfinyl)carbamate]	> 1000	235	–	–
CN(C(=O)Oc1cccc2ccccc12)[S+]([O-])Sc1ccccc1 (centres unmarked) [XIV, 1-naphthyl (methyl)(phenylthiosulfinyl)carbamate]	> 1000	350	–	–
CNC(=O)Oc1cccc2c1OC(C)(C)C2 [carbofuran, 2,3-dihydro-2,2-dimethyl-7-benzofuranyl methylcarbamate, reference compound]	2 to 8	~6.5	–	–
